Results published in patent publication US12239647B2, “ALS treatment using induced regulatory T (iTREG) cells” (RAPA THERAPEUTICS, LLC, priority 2018, dated 2025).

Legend:
[1] = test system: human CD4+ and CD8+ T cells; assay: RNA expression of de-differentiation transcription factors and IL-7 receptor alpha after 3-day culture (Luminex Quantigene); format: cell-based; conditions: bead:T cell 1:3, temsirolimus 1 μM, relative to control culture
Description: (§1) At the end of the de-differentiation interval, cells were harvested, RNA was isolated, and RNA expression analysis was performed by Luminex Quantigene method. All results shown represent relative RNA expression, with results normalized to a value of 1.0 for the Th1/Tc1 control culture.

[2] = test system: human CD4+ and CD8+ T cells; assay: Cytokine secretion (Luminex) of de-differentiated T cells cultured in polarization-neutral media; format: cell-based; conditions: vitamin D 0.01 nM during de-differentiation relative to 0.1 nM
Description: FIGS. 11A-11D depict the inflammatory Th1/Th17 cytokine analysis of cultured de-differentiated T cells in polarization-neutral media. […] After 3-days, the de-differentiated T cells were co-stimulated (typical bead-to-T cell ratio of 3:1) in media supplemented with the T cell growth cytokines rhu IL-2 (100 IU/ml) and rhu IL-7 (10 ng/ml), which are not potent in terms of inducing T cell polarization. After 10 days in culture (total, day 13 of culture), the T cells were harvested, washed, and re-stimulated with 3/28 beads (3:1 ratio) for 24 hr; the resultant supernatant was harvested and tested for cytokine content by Luminex multi-analyte method. All results shown are expressed as cytokine level in pg per ml per 1×10^6 cells/ml/24 hr.
FIGS. 12A-12D depicts the IL-2 and Th2-type cytokine analysis of cultured de-differentiated T cells in polarization-neutral media. […] After 3-days, the de-differentiated T cells were co-stimulated (typical bead-to-T cell ratio of 3:1) in media supplemented with the T cell growth cytokines rhu IL-2 (100 IU/ml) and rhu IL-7 (10 ng/ml), which are not potent in terms of inducing T cell polarization. […] All results shown are expressed as cytokine level in pg per ml per 1×10^6 cells/ml/24 hr.

[3] = test system: human CD4+ and CD8+ T cells; assay: Western blot for Raptor, Rictor, p70S6K and SGK1 after 3-day de-differentiation culture; format: cell-based; conditions: combination agent de-differentiation: temsirolimus 1 μM, Vitamin D 0.03 to 1.0 nM, Daclizumab 50 μg/ml; relative to control culture
Text: After the 3-day culture interval, the T cells were harvested, and protein was isolated and subjected to western blot analysis for the mTORC1 complex protein, Raptor; the mTORC2 complex protein, Rictor; the post-mTORC1 protein p70S6K; the post-mTORC2 protein, SGK1; and the housekeeping gene, GAPDH.

[4] = test system: human CD4+ and CD8+ T cells; assay: RNA expression of T cell effector molecules after 3-day de-differentiation culture (Luminex Quantigene); format: cell-based; conditions: 3-day culture, bead:T cell 1:3, temsirolimus 1 μM, Vitamin D 0.1 or 1.0 nM; relative to control Th1/Tc1 culture
Description: as §1

[5] = test system: human CD4+ and CD8+ T cells; assay: RNA expression of Th1 transcription factors and HIF-1-α after 3-day culture (Luminex Quantigene); format: cell-based; conditions: bead:T cell 1:3, temsirolimus 1 μM, Vitamin D 0.1 to 1.0 nM, relative to control culture
Description: as §1

[6] = test system: human CD4+ and CD8+ T cells; assay: Western blot for autophagy-related molecule p62 after 3-day de-differentiation culture; format: cell-based; conditions: 3-day culture, bead:T cell 1:3; temsirolimus 1.0 or 0.3 μM, Vitamin D 0.01-1.0 nM, Daclizumab 50 μg/ml as indicated
Description: The level of autophagy can be determined in-part by the subsequent up-regulation of the autophagy substrate, p62, by western blot analysis.
After the 3-day culture interval, the T cells were harvested, and protein was isolated and subjected to western blot analysis for the autophagy-related gene, p62, and the housekeeping gene, Actin.

[7] = test system: human CD4+ and CD8+ T cells; assay: T cell yield at day 13 after de-differentiation and re-stimulation without inhibitors; format: cell-based
Description: After 10 days (13 days of total culture), the T cells were harvested, enumerated, and evaluated by flow cytometry. FIG. 8 illustrates the effect of culture components during the de-differentiation interval on subsequent T cell yield (at day 13 of culture). […] After the 3-day interval, media was exchanged to fresh X-Vivo 20 without inhibitors, high-level co-stimulation was provided (3:1 bead-to-T cell ratio), and the T cell growth cytokines IL-2 (100 IU/ml) and IL-7 (10 ng/ml) were added. At day 13 of culture, viable T cells were enumerated and the overall yield is shown relative to day 0 input number.

[8] = test system: human CD4+ and CD8+ T cells; assay: Western blot for mTORC1-related molecule Raptor after 3-day de-differentiation culture; format: cell-based
Text: After the 3-day culture interval, the T cells were harvested, and protein was isolated and subjected to western blot analysis for the mTORC1 complex protein, Raptor, and the housekeeping gene, Actin.

[9] = test system: human CD4+ and CD8+ T cells; assay: Cytokine secretion (Luminex) in extended hybrid Th2/TREG culture with temsirolimus or pemetrexed; format: cell-based
Text: (§2) FIGS. 21A-21D illustrates that extended culture of de-differentiated T cells in the hybrid Th2/TREG polarization condition results in the generation of T cells expressing with a predominant Th2 cytokine phenotype: IL-4, IL-5, and IL-13 secretion. […] At days 12, 20, and 32 of culture, the T cells were harvested, washed, and re-stimulated with 3/28 beads (3:1 ratio) for 24 hr; the resultant supernatant was harvested and tested for cytokine content by Luminex multi-analyte method. All results shown are expressed as cytokine level in pg per ml per 1×10^6 cells/ml/24 hr. The Th2 cytokine IL-10 was also evaluated: all values were less than 20 pg/ml per 1×10^6 cells/ml/24 hr.
as §2, with “22A-22D illustrate” for “21A-21D illustrates”, “IL-2, IFN-γ,” for “IL-4, IL-5,”, “GM-CSF” for “IL-13”, “inflammatory cytokines IL-17 and TNF-α were” for “Th2 cytokine IL-10 was”

[10] = test system: human CD4+ and CD8+ T cells; assay: Expansion of de-differentiated T cells in Th1, TREG or hybrid Th2/TREG polarization with or without pemetrexed; format: cell-based
Description: FIG. 13 depicts favorable expansion of de-differentiated T cells in hybrid Th2/TREG polarization condition relative to Th1 polarization condition. Human CD4^+ and CD8^+ T cells were subjected to a 3-day de-differentiation procedure (“STEP 1”). […] In addition, the T cell culture in the presence of the variable polarization conditions was performed without the novel inhibitory molecule, pemetrexed (“0”) or in the presence of variable concentrations of pemetrexed, as indicated (10 nM [“10”]; 33 nM [“33”]; or 100 nM [“100”]. After a total of 10 days of culture, the n=24 cultures were harvested and live cells were enumerated and graphed above (y-axis indicated number of cells×10^6; input cell number was 1.5×10^6 cells).

[11] = test system: human CD4+ and CD8+ T cells; assay: Flow cytometry of FOXP3, Tbet and GATA3 in extended hybrid Th2/TREG culture with temsirolimus or pemetrexed; format: cell-based; conditions: hybrid polarization condition with pemetrexed 10 nM
Text: To evaluate these transcription factors in our manufacturing method, T cells were first subjected to the step 1 de-differentiation procedure and then re-differentiated in the hybrid TREG-Th2 culture condition (IL-2, TGF-β, and IL-4). In addition, we compared the effects of pemetrexed with a classical mTOR inhibitor.
The iTREG phenotype is considered to be unstable; as such, we evaluated the stability of T cells re-differentiated using the hybrid TREG-Th2 culture condition at delayed time points, including days 20 and 32 of culture. In addition, to test phenotype stability in a rigorous manner, between day 24 and day 32 of culture, T cells received a high level of co-stimulation (3:1 bead-to-T cell ratio) and were propagated in media without cytokines or pharmacologic agents.
FIGS. 19A-19D illustrate that extended culture of de-differentiated T cells in the hybrid Th2/TREG polarization condition containing pemetrexed results in the generation of CD4^+ T cells expressing FOXP3 and GATA3 transcription factors. […] At days 12, 20, and 32 of culture, T cells were harvested and subjected to surface flow cytometry (CD4 marker) and intra-cellular staining for the following transcription factors, FOXP3, Tbet, and GATA3. The data above show the percent CD4 cells out of the total cultured population (FIG. 19A); the percent of CD4 cells that expressed the TREG transcription factor FOXP3 (FIG. 19B); the percent of CD4 cells that expressed the Th1 transcription factor Tbet (FIG. 19C); and the percent of CD4 cells that expressed the Th2 transcription factor GATA3 (FIG. 19D).
FIGS. 20A-20D illustrate that extended culture of de-differentiated T cells in the hybrid Th2/TREG polarization condition containing pemetrexed results in the generation of CD8^+ T cells expressing FOXP3 and GATA3 transcription factors. […] At days 12, 20, and 32 of culture, T cells were harvested and subjected to surface flow cytometry (CD8 marker) and intra-cellular staining for the following transcription factors, FOXP3, Tbet, and GATA3. […]

[12] = test system: peripheral blood mononuclear cells from an ALS patient; assay: TCR repertoire profiling by RNA sequencing pre- and post-therapy with etanercept; format: in vivo, human
Text: (§3) FIGS. 23A & 23B depict the use of RNA-based T cell receptor sequencing to detect a widespread up- and down-regulation of T cell TCR specificities after therapy with the TNF-α inhibitor, etanercept. In FIG. 23, RNA was isolated from peripheral blood mononuclear cells from an ALS patient pre- and post-therapy with etanercept therapy. The RNA was subjected to TCR repertoire profiling, as previously described by Rosati E, Dowds C M, Liaskou E, Henriksen E K K, Karlsen T H, Franke A. Overview of methodologies for T-cell receptor repertoire analysis. BMC Biotechnol. 2017; 17(1): 61.
as §3, with “36A-36B” for “23A & 23B”, “depict” for “depict the”, “FIGS. 36A-36B,” for “FIG. 23,”

[13] = Vitamin D 1.0 nM in combination
[14] = hybrid TREG-Th2 condition, temsirolimus 1.0 μM or pemetrexed 10 nM
[15] = ALS patient, pre- versus post-therapy
[16] = several clones, pre- versus post-treatment

Compound: C=C1/C(=C\C=C2/CCC[C@]3(C)[C@@H]([C@H](C)CCCC(C)(C)O)CC[C@@H]23)C[C@@H](O)C[C@@H]1O [Vitamin D, Calcitriol]
- IL-7 receptor alpha RNA expression [1, 13]: not Vitamin D alone
- KLF4 RNA expression [1, 13]: neither temsirolimus nor Vitamin D alone increased
- KLF10 RNA expression [1, 13]: does not act alone to up-regulate
- Nanog RNA expression ([1]; Vitamin D 0.1 or 1.0 nM): does not act alone to up-regulate
- IFN-γ secretion [2]: somewhat higher levels
- TNF-α secretion [2]: somewhat higher levels
- Rictor expression (western blot, FIG. 6) [3]: effective
- Granzyme B RNA expression [4]: reduction
- IFN-gamma RNA expression [4]: reduction
- IL-10 RNA expression [4]: reduction
- HIF-1-α RNA expression [5]: did not down-regulate
- STAT1 RNA expression [5]: acts alone to beneficially down-regulate
- T-BET RNA expression [5]: acts alone to beneficially down-regulate
- p62 expression (western blot, autophagy marker) [6]: increased p62 expression
- T cell yield at day 13 of culture ([7]; Vitamin D concentration increased to 1.0 nM (column #6)): very low yield
- T cell yield at day 13 of culture ([7]; Vitamin D concentration reduced to 0.01 nM (column #5)): very low yield
- preferable concentration for T cell yield ([7]; de-differentiation interval): 0.1 nM
- Raptor expression ([8]; Vitamin D 0.3 nM (culture 7), versus 0.1 nM): higher level of Raptor expression
- Raptor inhibition ([8]; Vitamin D level reduced to 0.01 nM): sub-optimal Raptor inhibition

Compound: Nc1nc2[nH]cc(CCc3ccc(C(=O)N[C@@H](CCC(=O)O)C(=O)O)cc3)c2c(=O)[nH]1 [pemetrexed]
- GM-CSF secretion ([9]; hybrid TREG-Th2 condition supplemented with pemetrexed 10 nM): higher degree
- IL-5 secretion [9, 14]: fully preserved
- IL-13 secretion [9, 14]: fully preserved
- concentration for optimal T cell re-differentiation (numerical perspective) ([10]; TREG-Th2 hybrid polarization (IL-2, TGF-β, IL-4)): 10 nM
- T cell number after re-differentiation in TREG-Th2 polarization condition ([10]; most stringent de-differentiation (temsirolimus, vitamin D, anti-IL-2 receptor antibody), pemetrexed 10 nM in step 2, 10 days): sufficient T cells
- T cell number after re-differentiation in pure TREG polarizing condition (IL-2 plus TGF-β without IL-4) ([10]; most stringent de-differentiation, in the presence of pemetrexed (cultures #20 and #21)): unsuccessful
- T cell yield after re-differentiation in Th1-type polarization ([10]; pemetrexed not added or 10 to 100 nM, input 1.5×10^6 cells): greatly limited ability to re-differentiate
- percent of CD8 cells that expressed Tbet [11]: lowest levels
- percent of CD4 cells that expressed Tbet ([11]; days 12, 20, 32): most consistently reduced TBET values
- percent of CD4 cells that expressed GATA3 ([11]; end of culture): highest end-of-culture Th2-associated GATA3 expression

Compound: etanercept
- TCR specificities down-regulated in the post-therapy sample [12, 15]: approximately 25%
- TCR specificities up-regulated in the post-therapy sample [12, 15]: approximately 25%
- T cell clonal contraction [12, 16]: more than 4 log
- T cell clonal expansion [12, 16]: more than 4 log
- post-treatment frequencies of contracted T cell clones ([12]; several clones, 259 to 598 pre-etanercept): 0.01
